# From patent US8846912B2, “Tartrate salts of quinazoline based EGFR inhibitors containing a zinc binding moiety” (Curis, Inc., priority 2007, dated 2014)
# pIC50: −log10 of the molar value.
# Biological target: HDAC
# Test: HDAC fluorimetric enzyme assay (HeLa nuclear extract)
# Type: biochemical
# Experimental: HDAC inhibitors were screened using an HDAC fluorimetric assay kit (AK-500, Biomol, Plymouth Meeting, Pa.).
# Each assay was setup as follows: Defrosted all kit components and kept on ice until use. […] Prepared dilutions of Trichostatin A (TSA, positive control) and tested compounds in assay buffer (5× of final concentration). Diluted Fluor de Lys™ Substrate in assay buffer to 100 uM (50 fold=2× final). Diluted Fluor de Lys™ developer concentrate 20-fold (e.g. 50 μl plus 950 μl Assay Buffer) in cold assay buffer. Second, diluted the 0.2 mM Trichostatin A 100-fold in the 1× Developer (e.g. 10 μl in 1 ml; final Trichostatin A concentration in the 1× Developer=2 μM; final concentration after addition to HDAC/Substrate reaction=1 μM). Added Assay buffer, diluted trichostatin A or test inhibitor to appropriate wells of the microtiter plate. Added diluted HeLa extract or other HDAC sample to all wells except for negative controls.
row,pIC50,Structure (SMILES)
1,< 5.00,"COc1cc2ncnc(Nc3ccc(F)c(Cl)c3)c2cc1OCC(=O)NO [Compound 1, 2-(4-(3-Chloro-4-fluorophenylamino)-7-methoxyquinazolin-6-yloxy)-N-hydroxyacetamide]"
2,< 5.00,COc1cc2ncnc(Nc3ccc(F)c(Cl)c3)c2cc1OCCC(=O)NO [Compound 2]
3,< 5.00,"COc1cc2ncnc(Nc3ccc(F)c(Cl)c3)c2cc1OCCCC(=O)NO [Compound 3, 4-(4-(3-Chloro-4-fluorophenylamino)-7-methoxyquinazolin-6-yloxy)-N-hydroxybutanamide]"
4,6.00 to 7.00,COc1cc2ncnc(Nc3ccc(F)c(Cl)c3)c2cc1OCCCCC(=O)NO [Compound 4]
5,> 7.00,COc1cc2ncnc(Nc3ccc(F)c(Cl)c3)c2cc1OCCCCCC(=O)NO [Compound 5]
6,< 5.00,"C#Cc1cccc(Nc2ncnc3cc(OC)c(OCC(=O)NO)cc23)c1 [Compound 7, 2-(4-(3-ethynylphenylamino)-7-methoxyquinazolin-6-yloxy)-N-hydroxyacetamide]"
7,< 5.00,C#Cc1cccc(Nc2ncnc3cc(OC)c(OCCC(=O)NO)cc23)c1 [Compound 8]
8,6.00 to 7.00,"C#Cc1cccc(Nc2ncnc3cc(OC)c(OCCCC(=O)NO)cc23)c1 [Compound 9, 4-(4-(3-ethynylphenylamino)-7-methoxyquinazolin-6-yloxy)-N-hydroxybutanamide]"
9,6.00 to 7.00,"C#Cc1cccc(Nc2ncnc3cc(OC)c(OCCCCC(=O)NO)cc23)c1 [Compound 10, 5-(4-(3-Ethynylphenylamino)-7-methoxyquinazolin-6-yloxy)-N-hydroxypentanamide]"
10,> 7.00,"C#Cc1cccc(Nc2ncnc3cc(OC)c(OCCCCCC(=O)NO)cc23)c1 [Compound 11, 6-(4-(3-ethynylphenylamino)-7-methoxyquinazolin-6-yloxy)-N-hydroxyhexanamide]"
11,< 5.00,"O=C(COc1ccc2ncnc(Nc3ccc(F)c(Cl)c3)c2c1)NO [Compound 13, 2-(4-(3-Chloro-4-fluorophenylamino)quinazolin-6-yloxy)-N-hydroxyacetamide]"
12,5.00 to 6.00,O=C(CCOc1ccc2ncnc(Nc3ccc(F)c(Cl)c3)c2c1)NO [Compound 14]
13,> 7.00,"O=C(CCCOc1ccc2ncnc(Nc3ccc(F)c(Cl)c3)c2c1)NO [Compound 15, 4-(4-(3-chloro-4-fluorophenylamino)quinazolin-6-yloxy)-N-Hydroxybutanamide]"
14,6.00 to 7.00,"O=C(CCCCOc1ccc2ncnc(Nc3ccc(F)c(Cl)c3)c2c1)NO [Compound 16, 5-(4-(3-chloro-4-fluorophenylamino)quinazolin-6-yloxy)-N-hydroxypentanamide]"
15,> 7.00,"O=C(CCCCCOc1ccc2ncnc(Nc3ccc(F)c(Cl)c3)c2c1)NO [Compound 17, 6-(4-(3-Chloro-4-fluorophenylamino)quinazolin-6-yloxy)-N-hydroxyhexanamide]"
16,> 7.00,"O=C(CCCCCCOc1ccc2ncnc(Nc3ccc(F)c(Cl)c3)c2c1)NO [Compound 18, 7-(4-(3-chloro-4-fluorophenylamino)quinazolin-6-yloxy)-N-hydroxyheptanamide]"
17,< 5.00,"C#Cc1cccc(Nc2ncnc3ccc(OCC(=O)NO)cc23)c1 [Compound 19, 2-(4-(3-ethynylphenylamino)quinazolin-6-yloxy)-N-hydroxyacetamide]"
18,5.00 to 6.00,"C#Cc1cccc(Nc2ncnc3ccc(OCCCC(=O)NO)cc23)c1 [Compound 21, 4-(4-(3-ethynylphenylamino)quinazolin-6-yloxy)-N-hydroxybutanamide]"
19,> 7.00,C#Cc1cccc(Nc2ncnc3ccc(OCCCCC(=O)NO)cc23)c1 [Compound 22]
20,> 7.00,"C#Cc1cccc(Nc2ncnc3ccc(OCCCCCC(=O)NO)cc23)c1 [Compound 23, 6-(4-(3-ethynylphenylamino)quinazolin-6-yloxy)-N-hydroxyhexanamide]"
21,> 7.00,"C#Cc1cccc(Nc2ncnc3ccc(OCCCCCCC(=O)NO)cc23)c1 [Compound 24, 7-(4-(3-ethynylphenylamino)quinazolin-6-yloxy)-N-hydroxyheptanamide]"
22,> 7.00,"COCCOc1cc2ncnc(Nc3ccc(F)c(Cl)c3)c2cc1OCCCCCCC(=O)NO [Compound 30, 7-(4-(3-Chloro-4-fluorophenylamino)-7-(2-methoxyethoxy)quinazolin-6-yloxy)-N-hydroxyheptanamide]"
23,> 7.00,"C#Cc1cccc(Nc2ncnc3cc(OCCOC)c(OCCCCCCC(=O)NO)cc23)c1 [Compound 36, 7-(4-(3-Ethynylphenylamino)-7-(2-methoxyethoxy)quinazolin-6-yloxy)-N-hydroxyheptanamide]"

row,pIC50,Structure (SMILES)
1,5.00 to 6.00,"COc1cc2ncnc(Nc3ccc(F)c(Cl)c3)c2cc1NC(=O)CCCC(=O)NO [Compound 38, N^1-(4-(3-chloro-4-fluorophenylamino)-7-methoxyquinazolin-6-yl)-N^5-hydroxyglutaramide]"
2,> 7.00,"COc1cc2ncnc(Nc3ccc(F)c(Cl)c3)c2cc1NC(=O)CCCCCCC(=O)NO [Compound 40, N^1-(4-(3-chloro-4-fluorophenylamino)-7-methoxyquinazolin-6-yl)-N^8-hydroxyoctanediamide]"
3,6.00 to 7.00,"C#Cc1cccc(Nc2ncnc3cc(OC)c(NC(=O)CCCC(=O)NO)cc23)c1 [Compound 42, N^1-(4-(3-ethynylphenylamino)-7-methoxyquinazolin-6-yl)-N^5-hydroxyglutaramide]"
4,6.00 to 7.00,"C#Cc1cccc(Nc2ncnc3cc(OC)c(NC(=O)CCCCC(=O)NO)cc23)c1 [Compound 43, N^1-(4-(3-ethynylphenylamino)-7-methoxyquinazolin-6-yl)-N^6-hydroxyadipamide]"
5,> 7.00,"C#Cc1cccc(Nc2ncnc3cc(OC)c(NC(=O)CCCCCCC(=O)NO)cc23)c1 [Compound 44, N^1-(4-(3-ethynylphenylamino)-7-methoxyquinazolin-6-yl)-N^8-hydroxyoctanediamide]"
6,< 5.00,Nc1cc(Br)ccc1NC(=O)COc1ccc2ncnc(Nc3ccc(F)c(Cl)c3)c2c1 [Compound 45]
7,6.00 to 7.00,C[C@@H](Nc1ncnc2ccc(OCCCCCC(=O)NO)cc12)c1ccccc1 [Compound 50]
8,6.00 to 7.00,O=C(/C=C/c1ccc(OCCOc2ccc3ncnc(Nc4ccc(F)c(Cl)c4)c3c2)cc1)NO [Compound 63]
9,6.00 to 7.00,"COc1cc2ncnc(Nc3ccc(F)c(Cl)c3)c2cc1OCCOc1ccc(/C=C/C(=O)NO)cc1 [Compound 66, (E)-3-(4-(2-(4-(3-chloro-4-fluorophenylamino)-7-methoxyquinazolin-6-yloxy)ethoxy)phenyl)-N-hydroxyacrylamide]"
10,5.00 to 6.00,"COCCOc1cc2ncnc(Nc3ccc(F)c(Cl)c3)c2cc1NC(=O)CCCC(=O)NO [Compound 68, N^1-(4-(3-chloro-4-fluorophenylamino)-7-(2-methoxyethoxy)quinazolin-6-yl)-N^5-hydroxyglutaramide]"
11,6.00 to 7.00,"COCCOc1cc2ncnc(Nc3ccc(F)c(Cl)c3)c2cc1NC(=O)CCCCC(=O)NO [Compound 69, N^1-(4-(3-chloro-4-fluorophenylamino)-7-(2-methoxyethoxy)quinazolin-6-yl)-N^6-hydroxyadipamide]"
12,> 7.00,"C#Cc1cc(Nc2ncnc3cc(OC)c(OCCCCCCC(=O)NO)cc23)ccc1F [Compound 75, 7-(4-(3-ethynyl-4-fluorophenylamino)-7-methoxyquinazolin-6-yloxy)-N-hydroxyheptanamide]"
13,> 7.00,C#Cc1cc(Nc2ncnc3cc(OCCOC)c(OCCCCCCC(=O)NO)cc23)ccc1F [Compound 76]
14,> 7.00,"COc1cc2ncnc(N[C@H](C)c3ccccc3)c2cc1OCCCCCC(=O)NO [Compound 77, (R)—N-hydroxy-6-(7-methoxy-4-(1-phenylethylamino)quinazolin-6-yloxy)-hexanamide]"
15,> 7.00,"C[C@@H](Nc1ncnc2ccc(OCCCCCC(=O)NO)cc12)c1ccccc1 [Compound 78, (R)—N-hydroxy-6-(4-(1-phenylethylamino)-quinazolin-6-yloxy)hexanamide]"
16,> 7.00,"COc1cc2ncnc(N[C@H](C)c3ccccc3)c2cc1OCCCCCCC(=O)NO [Compound 79, (R)—N-hydroxy-7-(7-methoxy-4-(1-phenylethylamino)quinazolin-6-yloxy)heptanamide]"
17,> 7.00,"COc1cc2ncnc(N[C@@H](C)c3ccccc3)c2cc1OCCCCCCC(=O)NO [Compound 80, (S)—N-hydroxy-7-(7-methoxy-4-(1-phenylethylamino)quinazolin-6-yloxy) heptanamide]"
18,6.00 to 7.00,"COc1cc2ncnc(N[C@H](C)c3ccc(F)cc3)c2cc1OCCCCCCC(=O)NO [Compound 81, (R)-7-(4-(1-(4-fluorophenyl)ethylamino)-7-methoxyquinazolin-6-yloxy)-N-hydroxyheptanamide]"
19,6.00 to 7.00,"COc1cc2ncnc(N[C@H](C)c3ccc(Cl)cc3)c2cc1OCCCCCCC(=O)NO [Compound 82, (R)-7-(4-(1-(4-Chlorophenyl)ethylamino)-7-methoxyquinazolin-6-yloxy)-N-hydroxyheptanamide]"
20,> 7.00,"COc1ccc([C@@H](C)Nc2ncnc3cc(OC)c(OCCCCCCC(=O)NO)cc23)cc1 [Compound 83, (R)—N-Hydroxy-7-(7-methoxy-4-(1-(4-methoxyphenyl)ethylamino)-quinazolin-6-yloxy)-heptanamide]"
21,> 7.00,COc1cc2ncnc(NCCc3ccccc3)c2cc1OCCCCCCC(=O)NO [Compound 84]
22,> 7.00,"COc1cc2ncnc(NCc3ccccc3)c2cc1OCCCCCCC(=O)NO [Compound 85, 7-(4-(Benzylamino)-7-methoxyquinazolin-6-yloxy)-N-hydroxyheptanamide]"
23,> 7.00,"COc1cc2ncnc(NCc3ccc(F)cc3)c2cc1OCCCCCCC(=O)NO [Compound 86, 7-(4-(4-fluorobenzylamino)-7-methoxyquinazolin-6-yloxy)-N-hydroxyheptanamide]"
